{
  "source": "patent US20250346938A1",
  "about": "“ATP-DEPENDENT C-TERMINAL MODIFICATION OF POLYPEPTIDES” (Wisconsin Alumni Research Foundation, priority 2024, published 2025)",
  "molecules": {"B1": {"name": "a-GFP rAb (protein)", "light": "SDIQMTQSPSSLSASVGDRVTITCRASQSVSSAVAWYQQKPGKAPKLLIYSASSLYSGVPSRFSGSRSGTDFTLTISSLQPEDFATYYCQQSWGLITFGQGTKVEIKRTVAAPSVFIFPPSDSQLKSGTASVVCLLNNFYPREAKVQWKVDNALQSGNSQESVTEQDSKDSTYSLSSTLTLSKADYEKHKVYACEVTHQGLSSPVTKSFNRGEC", "heavy": "EISEVQLVESGGGLVQPGGSLRLSCAASGFNISYYSIHWVRQAPGKGLEWVASIYPYYSSTSYADSVKGRFTISADTSKNTAYLQMNSLRAEDTAVYYCARAGWVASSGMDYWGQGTLVTVSSASTKGPSVFPLAPSSKSTSGGTAALGCLVKDYFPEPVTVSWNSGALTSGVHTFPAVLQSSGLYSLSSVVTVPSSSLGTQTYICNVNHKPSNTKVDKKVEPKSCGGGGGMRTGNAGAFAGAGSK", "modifications": "non-natural residues; cyclised or stapled"}, "B2": {"name": "PTP 1B 1-321: catalytic domain of protein tyrosine phosphatase 1B with TeCH-tag (SEQ ID NO: 76) (protein)", "chain": "MGHHHHHHDYDIPTTENLYFQGSMEMEKEFEQIDKSGSWAAIYQDIRHEASDFPCRVAKLPKNKNRNRYRDVSPFDHSRIKLHQEDNDYINASLIKMEEAQRSYILTQGPLPNTCGHFWEMVWEQKSRGVVMLNRVMEKGSLKCAQYWPQKEEKEMIFEDTNLKLTLISEDIKSYYTVRQLELENLTTQETREILHFHYTTWPDFGVPESPASFLNFLFKVRESGSLSPEHGPVVVHCSAGIGRSGTFCLADTCLLLMDKRKDPSSVDIKKVLLEMRKFRMGLIQTADQLRFSYLAVIEGAKFIMGDSSVQDQWKELSHEDLEPPPEHIPPPPRPPKRILEPHNGGGGMRTGNAG", "modifications": "TeCH-tag; N-terminal His tag and TEV protease cleavage site sequence; Linker and MccB recognition sequence"}, "B3": {"name": "protein L: protein L with C-terminal TeCH-tag (SEQ ID NO: 75) (protein)", "chain": "MHHHHHHKEETPETPETDSEEEVTIKANLIFANGSTQTAEFKGTFEKATSEAYAYADTLKKDNGEYTVDVADKGYTLNIKFAGKEKTPEEPKEEVTIKANLIYADGKTQTAEFKGTFEEATAEAYRYADALKKDNGEYTVDVADKGYTLNIKFAGKEKTPEEPKEEVTIKANLIYADGKTQTAEFKGTFEEATAEAYRYADLLAKENGKYTVDVADKGYTLNIKFAGKEKTPEEPKEEVTIKANLIYADGKTQTAEFKGTFAEATAEAYRYADLLAKENGKYTADLEDGGYTINIRFAGKKVDEKPEEKEQVTIKENIYFEDGTVQTATFKGTFAEATAEAYRYADLLSKEHGKYTADLEDGGYTINIRFAGGGGSGGGSMRTGNAG", "modifications": "C-terminal TeCH-tag; Linker and MccB recognition sequence"}},
  "key": {"HpM ccB": {"tested_on": "HpM ccB", "sequence (as listed by the source)": "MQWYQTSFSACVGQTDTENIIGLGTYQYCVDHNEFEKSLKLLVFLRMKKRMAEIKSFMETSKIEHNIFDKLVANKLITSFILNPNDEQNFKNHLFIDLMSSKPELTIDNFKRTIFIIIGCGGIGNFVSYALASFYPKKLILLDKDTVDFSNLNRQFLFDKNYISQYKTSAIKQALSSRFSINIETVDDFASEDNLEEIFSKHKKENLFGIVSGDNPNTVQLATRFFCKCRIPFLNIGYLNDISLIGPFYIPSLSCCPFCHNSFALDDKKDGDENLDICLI", "experiment": "C-terminal thioesterification of MccA-N7G peptides by H. pylori MccB (LC-MS)", "assay_type": "biochemical", "details": "HpMccB, ATP, Mesna, 16 h"}, "E. coli M ccB [1]": {"tested_on": "E. coli M ccB", "experiment": "LC-TOF MS analysis of MccB-catalyzed AMPylation of MccA variants", "assay_type": "biochemical", "details": "for formation of stably AMPylated product: HPLC-MS assay", "procedure": "LC-TOF MS analysis of M ccB reactions with synthetic peptide substrates. […] Reactions were incubated for 16 hours at room temperature and quenched with addition of an equivalent volume of 0.6% TFA. These reaction conditions were used for M ccBs from E. coli, H. pylori, L. johnsonii, and H. somni.\nLC-TOF MS analysis of M ccB-catalyzed N-AM Pylation of M ccA positional scanning peptide library. MccA variants were synthesized individually in-house (according to Solid-phase peptide synthesis) or were purchased from Peptide2.0. […] Reactions were incubated for 16 hours at room temperature and quenched with addition of an equivalent volume of 0.6% TFA. […] Percent conversion was calculated using peak areas from substrate and product EICs. Raw data are available in the Dryad repository at DOI: 10.5061/dryad.c59zw3rkb."}, "E. coli M ccB [2]": {"tested_on": "E. coli M ccB", "experiment": "Enzyme-coupled pyrophosphate (PPi) release assay, E. coli MccB", "assay_type": "biochemical", "details": "MccA C-terminal variant as substrate for MccB", "text": "FIG. 31. Enzyme-coupled pyrophosphate assay for detection of M ccB-catalyzed pyrophosphate release. M ccB-catalyzes release of pyrophosphate, which is converted to phosphate by inorganic pyrophosphatase (PPiase). Purine nucleoside phosphorylase (PN Pase) uses phosphate as a substrate to convert 2-amino-6-mercapto-7-methylpurine ribonucleoside (M ESG) to ribose 1-phosphate and 2-amino-6-mercapto-7-methylpurine, which absorbs at 360 nm.\nPurine nucleoside phosphorylase (PNP)/inorganic pyrophosphate (IP)-coupled kinetic assays. The kinetics of M ccB-catalyzed adenylation were characterized using an enzyme-coupled assay for detecting formation of pyrophosphate EnzCheck Pyrophosphate Assay Kit (Thermo Fisher Scientific) (FIG. 31). To screen M ccB for adenylation activity with C-terminal variants of MccA, 5 μM of the appropriate MccB variant was incubated with 0.25 mM of each M ccA variant in a reaction with 0.25 mM ATP, 5 mM M gCl2, 0.5 U/mL purine nucleoside phosphorylase (PNP), and 0.5 U/mL inorganic pyrophosphatase (IP). To screen E. coli, H. pylori, and L. johnsonii M ccB homologs for adenylation activity with MccA homologs, 5 μM of the appropriate MccB enzyme was incubated with 0.25 mM of each M ccA variant in a reaction with 0.25 mM ATP, 5 mM M gCI2, 0.5 U/mL purine nucleoside phosphorylase (PNP), and 0.5 U/mL inorganic pyrophosphatase (IP). Reactions containing HpM ccA-N7G and LjM ccA-N 7G peptides also contained 5 mM M esna and 5 mM TCEP. To collect steady-state kinetics data for individual peptide substrates, the peptide concentration was varied from 0-600 μM in a reaction with 5 μM MccB, 0.25 mM ATP, 5 mM MgCl2, 0.5 U/mL purine nucleoside phosphorylase (PNP), and 0.5 U/mL inorganic pyrophosphatase (IP). […] We therefore repeated measurements for the MccA-N7G peptide using an MccB concentration of […] and a substrate concentration range from 0-100 μM. Reactions were initiated with the addition of M ccB and absorbance at 360 nm was monitored using a Tecan Infinite M 200 plate reader. Initial rates of pyrophosphate production were calculated based on the initial rate of absorbance change and the resulting purine analog extinction coefficient (11,000 M-1 cm-1). Reactions were carried out in triplicate and data analysis was performed using GraphPad Prism 10."}, "HsM ccB": {"tested_on": "HsM ccB", "experiment": "H. somni MccB-catalyzed peptide thioester synthesis", "assay_type": "biochemical", "details": "for thioesterification: Mesna as thiol donor", "procedure": "Reactions were incubated for 16 hours at room temperature and quenched with addition of an equivalent volume of 0.6% TFA. […] To screen the ability of H. somni M ccB to catalyze thioesterification of HsLACE peptides, reactions contained M ccB ([…]), ATP (5 mM), M gCl2 (5 mM), peptide substrate (0.25 mM), 25 mM M esna or AcCysNHM e, and reaction buffer (100 mM HEPES, pH 8.0).\nH. somni M ccB-catalyzed peptide thioester synthesis. For screening the activity of HsM ccB on HsTeCH, HsLACE1-4, and LACE substrate peptide, […] reactions were prepared that contained 100 mM HEPES, pH 8.0, HsM ccB ([…]), HsTeCH, HsLACE1-4, or LACE peptide ([…]), ATP (5 mM), M gCl2 (5 mM), and thiol (M esna or AcCysNHMe, 25 mM). Reactions were initiated by addition of HsM ccB and incubated for 16-20 h at room temperature. Raw data are available in the Dryad repository at DOI: 10.5061/dryad.c59zw3rkb."}, "M ccB [3]": {"tested_on": "M ccB", "experiment": "Screening nucleophiles for MccB-mediated modification of MccA-N7G (LC-TOF MS)", "assay_type": "biochemical, E. coli", "details": "HPLC-MS", "procedure": "Screening nucleophiles for MccB-mediated ligation of synthetic peptide substrates. Nucleophile were dissolved in water and adjusted to neutral pH using paper pH strips (EM D Millipore). Solutions were stored at −80° C. until further use, unless otherwise noted. M ccA-N7G (250 μM) was incubated with 5 μM MccB, 5 mM ATP, and the corresponding concentration of nucleophile in reaction buffer (25 mM Tris pH 8.0, 10 mM M gCl2). Reactions were incubated for 16 hours at room temperature and quenched with addition of an equivalent volume of 0.6% TFA. […] Extracted ion chromatogram (EIC) peak areas were calculated using Agilent TOF Quantitative Analysis v11.0. Percent conversion of substrate to nucleophile-modified product was calculated using the integrated peak areas from the substrate peptide EIC and production EIC using the formula shown below."}, "M ccB [4]": {"tested_on": "M ccB", "experiment": "MccB-catalyzed C-terminal thioesterification / Cys ligation of TeCH-tag fusion proteins (intact protein LC-MS)", "assay_type": "biochemical, E. coli", "details": "ATP (5 mM), Mesna (5 mM)", "procedure": "M ccB-mediated ligation of GFP-MccA-N7G protein substrates. GFP-M ccA-N7G variant (50 μM) was incubated with 5 μM MccB, 5 mM ATP, and the appropriate concentration of cysteine or Mesna/TCEP in reaction buffer (25 mM Tris pH 8.0, 10 mM M gCl2). Reactions were incubated at room temperature for the indicated times. For labeling time course experiments, reactions were quenched with the addition of an equivalent volume of 0.6% TFA."}},
  "note": "Ends that are not written are not given here.",
  "data": [
    {"molecule": "M KLSY RG (MKLSYRG) [HpM ccA-N7G]", "values": [
      {"measurement": "conversion to C-terminal thioester, yield", "setting": "HpM ccB", "result": "> 97", "unit": "%"}
    ]},
    {"molecule": "MRTGNAN (listed as Escherichia coli) [wild-type M ccA, reference compound]", "values": [
      {"measurement": "formation of C-terminally N-AMPylated phosphoramidate product", "setting": "E. coli M ccB [1]; positional scanning library, 16 h", "result": "fully converted"}
    ]},
    {"molecule": "MccA-N7A: E. coli MccA (MRTGNAN) with C-terminal Asn varied to Ala (MRTGNAA)", "values": [
      {"measurement": "stimulation of PPi formation", "setting": "E. coli M ccB [2]", "result": "substantial stimulation"},
      {"measurement": "formation of stably AMPylated product", "setting": "E. coli M ccB [1]", "result": "no stably A M Pylated product was observed"}
    ]},
    {"molecule": "MccA-N7S: E. coli MccA (MRTGNAN) with C-terminal Asn varied to Ser (MRTGNAS)", "values": [
      {"measurement": "stimulation of PPi formation", "setting": "E. coli M ccB [2]", "result": "substantial stimulation"},
      {"measurement": "formation of stably AMPylated product", "setting": "E. coli M ccB [1]", "result": "no stably A M Pylated product was observed"}
    ]},
    {"molecule": "MLRLRGG (listed as Histophilus somni) [HsLACE4]", "values": [
      {"measurement": "thioesterification", "setting": "HsM ccB", "result": "< 1", "unit": "%"}
    ]},
    {"molecule": "O=C(O)Cc1ccc(S)cc1", "note": "[M PAA, 4-mercaptophenylacetic acid]", "values": [
      {"measurement": "capture of O-AMPylated intermediate / modification of MccA-N7G C terminus by nucleophile", "setting": "M ccB [3]", "result": "inability"}
    ]},
    {"molecule": "LRLRGG (not fully specified (C-terminus))", "values": [
      {"measurement": "thioesterification", "setting": "HsM ccB", "result": 18, "unit": "%"}
    ]},
    {"molecule": "MccA-N7T: E. coli MccA (MRTGNAN) with C-terminal Asn varied to Thr (MRTGNAT)", "values": [
      {"measurement": "stimulation of PPi formation", "setting": "E. coli M ccB [2]", "result": "substantial stimulation"},
      {"measurement": "formation of stably AMPylated product", "setting": "E. coli M ccB [1]", "result": "no stably A M Pylated product was observed"}
    ]},
    {"molecule": "Cl.NO", "note": "[hydroxylamine, hydroxylamine hydrochloride]", "values": [
      {"measurement": "capture of O-AMPylated intermediate / modification of MccA-N7G C terminus by nucleophile", "setting": "M ccB [3]", "result": "efficient capture"}
    ]},
    {"molecule": "CNC(=O)[C@H](CS)NC(C)=O", "note": "[A cCysNHM e]", "values": [
      {"measurement": "thiol donor for HsMccB-catalyzed thioesterification", "setting": "HsM ccB", "result": "poor thiol donor"}
    ]},
    {"molecule": "Cys-Trp", "values": [
      {"measurement": "capture of O-AMPylated intermediate / modification of MccA-N7G C terminus by nucleophile", "setting": "M ccB [3]", "result": "no modification"}
    ]},
    {"molecule": "MHRIMKN (listed as Lactobacillus johnsonii) [LjM ccA, at b127 probably the N7G variant is meant, reference compound]", "values": [
      {"measurement": "conversion to C-terminal thioester, yield", "setting": "HpM ccB", "result": 13, "unit": "%"}
    ]},
    {"molecule": "C#CCCNC(=O)c1ccc(CCNN)cc1", "note": "[N-(but-3-yn-1-yl)-4-(2-hydrazineylethyl)benzamide]", "values": [
      {"measurement": "capture of O-AMPylated intermediate / modification of MccA-N7G C terminus by nucleophile", "setting": "M ccB [3]", "result": "unable to modify"}
    ]},
    {"molecule": "B1", "values": [
      {"measurement": "time to complete conversion to thioester", "setting": "M ccB [4]", "result": 16, "unit": "h"}
    ]},
    {"molecule": "B2", "values": [
      {"measurement": "time to complete conversion to thioester", "setting": "M ccB [4]", "result": 1, "unit": "h"}
    ]},
    {"molecule": "B3", "values": [
      {"measurement": "time to complete conversion to thioester", "setting": "M ccB [4]", "result": 16, "unit": "h"}
    ]}
  ]
}
